Data: patent US20260198493A1, “HYDRAZIDE COMPOUND AND AGRICULTURAL/HORTICULTURAL FUNGICIDE” (Nippon Soda Co., Ltd., priority 2022, published 2026)

Columns and labels:
Botrytis cinerea [1] = format: cell-based; conditions: 120 h, 25 ppm by volume, Vogel medium, 20° C., five days, dark, read-out: growth inhibition ratio
Fusarium graminearum = assay: microbe, parasite or virus in culture; format: cell-based; conditions: 96 h, read-out: growth inhibition ratio
Botrytis cinerea [2] = assay: Control test of cucumber gray mold (sprayed young cucumber seedlings); format: in vivo; conditions: 96 h, four days after inoculation; for pest or weed control at 25 ppm: 25 ppm by mass spray; for pest or weed control at 125 ppm: 125 ppm by mass spray
Protocol: Then, the drug liquid was sprayed onto young cucumber seedlings cultivated in a nursery pot (variety “Jihai”-based, cotyledon stage), and then air-dried. […] They were left still in a moist room at 20° C. Four days after inoculation, leaves of the young cucumber seedlings were visually observed, and the control value was calculated from the lesion area ratio in accordance with the following equation. [formula]

[3] = test system: Erysiphe graminis f.sp.tritici; assay: Control test of wheat powdery mildew disease (sprayed young wheat seedlings); format: in vivo; conditions: Blumeria graminis, 144 h, 125 ppm by mass spray, six days after inoculation
Colletotrichum acutatum = assay: Fungicidal effect test against fungi causing apple anthracnose; conditions: 96 h, read-out: growth inhibition ratio
Glomerella cingulata = assay: Fungicidal effect test against fungi causing grape ripe rot disease; conditions: Colletotrichum gloeosporioides, 72 h, read-out: growth inhibition ratio

Cc1ccc(CN(C=O)NC(=O)c2cc(C)nnc2Oc2cccc(C3CC3)c2F)c(C)c1 [b-3, 3-(3-cyclopropyl-2-fluorophenoxy)-N′-(2,4-dimethylbenzyl)-N′-formyl-6-methylpyridazine-4-carbohydrazide]
≥ 75%: inhibition of growth at 25 ppm (Botrytis cinerea [1]) | inhibition of growth at 25 ppm (Fusarium graminearum) | pest or weed control at 25 ppm (Botrytis cinerea [2]) | pest or weed control at 125 ppm (Botrytis cinerea [2]) | pest or weed control at 125 ppm [3] | inhibition of growth at 25 ppm (Colletotrichum acutatum) | inhibition of growth at 25 ppm (Glomerella cingulata)

Cc1ccc(CN(C=O)NC(=O)c2cc(C)ncc2Oc2cccc(C3CC3)c2F)c(C)c1 [b-14]
≥ 75%: inhibition of growth at 25 ppm (Botrytis cinerea [1]) | inhibition of growth at 25 ppm (Fusarium graminearum) | pest or weed control at 25 ppm (Botrytis cinerea [2]) | pest or weed control at 125 ppm (Botrytis cinerea [2]) | pest or weed control at 125 ppm [3] | inhibition of growth at 25 ppm (Colletotrichum acutatum) | inhibition of growth at 25 ppm (Glomerella cingulata)

COC(=O)N(Cc1ccc(C)cc1C)NC(=O)c1cc(C)nnc1Oc1cccc(C#N)c1 [b-37]
≥ 75%: inhibition of growth at 25 ppm (Botrytis cinerea [1]) | inhibition of growth at 25 ppm (Fusarium graminearum) | pest or weed control at 125 ppm (Botrytis cinerea [2]) | pest or weed control at 125 ppm [3] | inhibition of growth at 25 ppm (Colletotrichum acutatum) | inhibition of growth at 25 ppm (Glomerella cingulata)

COC(=O)N(Cc1ccc(C)cc1C)NC(=O)c1ccncc1Oc1ccccc1 [b-188]
≥ 75%: inhibition of growth at 25 ppm (Botrytis cinerea [1]) | inhibition of growth at 25 ppm (Fusarium graminearum) | pest or weed control at 25 ppm (Botrytis cinerea [2]) | pest or weed control at 125 ppm (Botrytis cinerea [2]) | pest or weed control at 125 ppm [3] | inhibition of growth at 25 ppm (Colletotrichum acutatum) | inhibition of growth at 25 ppm (Glomerella cingulata)

COC(=O)N(Cc1ccc(C)cc1C)NC(=O)c1c(F)cncc1Oc1cccc(Cl)c1F [b-200]
≥ 75%: inhibition of growth at 25 ppm (Botrytis cinerea [1]) | inhibition of growth at 25 ppm (Fusarium graminearum) | pest or weed control at 25 ppm (Botrytis cinerea [2]) | pest or weed control at 125 ppm (Botrytis cinerea [2]) | pest or weed control at 125 ppm [3] | inhibition of growth at 25 ppm (Colletotrichum acutatum) | inhibition of growth at 25 ppm (Glomerella cingulata)

COC(=O)N(Cc1ccc(OC)cc1C)NC(=O)c1c(Cl)cncc1Oc1cccc(Cl)c1F [b-207]
≥ 75%: inhibition of growth at 25 ppm (Botrytis cinerea [1]) | inhibition of growth at 25 ppm (Fusarium graminearum) | pest or weed control at 25 ppm (Botrytis cinerea [2]) | pest or weed control at 125 ppm (Botrytis cinerea [2]) | pest or weed control at 125 ppm [3] | inhibition of growth at 25 ppm (Colletotrichum acutatum) | inhibition of growth at 25 ppm (Glomerella cingulata)

COC(=O)N(Cc1ccc(C)cc1C)NC(=O)c1c(Oc2cccc(C3CC3)c2F)cnc2c1OC(C)(C)CC2 [b-209, Methyl 2-(7-(3-cyclopropyl-2-fluorophenoxy)-2,2-dimethyl-3,4-dihydro-2H-pyrano[3,2-b]pyridine-8-carbonyl)-1-(2,4-dimethylbenzyl)hydrazine-1-carboxylate]
≥ 75%: inhibition of growth at 25 ppm (Botrytis cinerea [1]) | inhibition of growth at 25 ppm (Fusarium graminearum) | pest or weed control at 25 ppm (Botrytis cinerea [2]) | pest or weed control at 125 ppm (Botrytis cinerea [2]) | inhibition of growth at 25 ppm (Colletotrichum acutatum) | inhibition of growth at 25 ppm (Glomerella cingulata)

C=Cc1cncc(Oc2cccc(C3CC3)c2F)c1C(=O)NN(Cc1ccc(C)cc1C)C(=O)OC [b-211]
≥ 75%: inhibition of growth at 25 ppm (Botrytis cinerea [1]) | inhibition of growth at 25 ppm (Fusarium graminearum) | pest or weed control at 25 ppm (Botrytis cinerea [2]) | pest or weed control at 125 ppm (Botrytis cinerea [2]) | pest or weed control at 125 ppm [3] | inhibition of growth at 25 ppm (Colletotrichum acutatum) | inhibition of growth at 25 ppm (Glomerella cingulata)

COC(=O)N(Cc1ccc(C)cc1C)NC(=O)c1c(Oc2cccc(C3CC3)c2F)cnc2c1OC(C)(C)C=C2 [b-213, Methyl 2-(7-(3-cyclopropyl-2-fluorophenoxy)-2,2-dimethyl-2H-pyrano[3,2-b]pyridine-8-carbonyl)-1-(2,4-dimethylbenzyl)hydrazine-1-carboxylate]
≥ 75%: inhibition of growth at 25 ppm (Botrytis cinerea [1]) | inhibition of growth at 25 ppm (Fusarium graminearum) | pest or weed control at 25 ppm (Botrytis cinerea [2]) | pest or weed control at 125 ppm (Botrytis cinerea [2]) | pest or weed control at 125 ppm [3] | inhibition of growth at 25 ppm (Colletotrichum acutatum) | inhibition of growth at 25 ppm (Glomerella cingulata)

CO/N=C/c1cncc(Oc2cccc(C3CC3)c2F)c1C(=O)NN(Cc1ccc(C)cc1C)C(=O)OC [b-214]
≥ 75%: inhibition of growth at 25 ppm (Botrytis cinerea [1]) | inhibition of growth at 25 ppm (Fusarium graminearum) | pest or weed control at 125 ppm (Botrytis cinerea [2]) | inhibition of growth at 25 ppm (Colletotrichum acutatum) | inhibition of growth at 25 ppm (Glomerella cingulata)
